Source: patent US7521423B2, “Exendin pharmaceutical compositions” (Amylin Pharmaceuticals, Inc., priority 1996, dated 2009)
“Also recorded” adds a separate entry of the source. No end group written: not given here.

Tests used:
[1] = tested on: pentagastrin-induced gastric acid secretion; details: reported, Gedulin et al. 1997; cited from earlier work
gastric emptying [2] = experiment: Gastric emptying in conscious rats, retention of phenol red methyl cellulose gel 20 min after gavage (Example 1); type: in vivo, Male Harlan Sprague Dawley (HSD) rats; details: for ED50 of inhibition of gastric emptying: Example 1, FIG. 2, subcutaneous injection, 20 min after gavage; for % remaining (percent of gastric contents remaining 20 minutes after gavage): normal rats; for effect on gastric emptying (in words): Example 1, dose-response study
Description: As described in Example 1, gastric emptying was measured in normal Sprague Dawley rats using the retention of an acaloric methylcellulose gel containing Phenol Red delivered by gavage. Dye content in stomachs removed after sacrifice 20 minutes later was determined spectroscopically, and was compared to that in rats sacrificed immediately after gavage to assess emptying.
This experiment followed a modification of the method of Scarpignato, et al., Arch. Int. Pharmacodyn. Ther. 246:286-94 (1980).
Male Harlan Sprague Dawley (HSD) rats were used. All animals were housed at 22.7±0.8 C in a 12:12 hour light:dark cycle (experiments being performed during the light cycle) and were fed and watered ad libitum (Diet LM-485, Teklad, Madison, Wis.).
The determination of gastric emptying by the method described below was performed after a fast of ˜20 hours to ensure that the stomach contained no chyme that would interfere with spectrophotometric absorbance measurements.
(§1) Conscious rats received by gavage, 1.5 ml of an acaloric gel containing 1.5% methyl cellulose (M-0262, Sigma Chemical Co, St Louis, Mo.) and 0.05% phenol red indicator. Twenty minutes after gavage, rats were anesthetized using 5% halothane, the stomach exposed and clamped at the pyloric and lower esophageal sphincters using artery forceps, removed and opened into an alkaline solution which was made up to a fixed volume. Stomach content was derived from the intensity of the phenol red in the alkaline solution, measured by absorbance at a wavelength of 560 nm. In separate experiments on 7 rats, the stomach and small intestine were both excised and opened into an alkaline solution. The quantity of phenol red that could be recovered from the upper gastrointestinal tract within 20 minutes of gavage was 89±4%; dye which appeared to bind irrecoverably to the gut luminal surface may have accounted for the balance. To account for a maximal dye recovery of less than 100%, percent of stomach contents remaining after 20 min were expressed as a fraction of the gastric contents recovered from control rats sacrificed immediately after gavage in the same experiment. Percent gastric contents remaining =(absorbance at 20 min)/(absorbance at 0 mm)×100.
In baseline studies, with no drug treatment, gastric emptying over 20 min was determined. […]

food intake = details: mice, peripheral injection; cited from earlier work
gastric emptying [3] = experiment: Antagonism by exendin[9-39] of gastric emptying inhibition by exendin-4 and GLP-1[7-36]NH2 (Example 3); type: in vivo, rats
Description: (sc), n=6; and 0.3 mg exendin[9-39] (sc), n=6 on the retention of gastric contents 20 minutes after gavage. Also shown are saline controls at t=0 and t=20 min. The error bars show standard error of the mean. […] Exendin[9-39] (sc) alone had no effect on gastric emptying.
(iv), n=5 on the retention of gastric contents 20 minutes after gavage. Also shown are saline controls at t+0 and t=20 min. The error bars show standard error of the mean.
(iv), n=3 on the retention of gastric contents 20 minutes after gavage. Also shown are saline controls at t=0 and t=20 min. The error bars show standard error of the mean. […] When injected along with GLP-1[7-36]NH2, exendin[9-39]
as §1
In these studies, exendin[9-39] was give both subcutaneously (sc) and intravenously (iv).

gastric emptying [4] = experiment: Gastric emptying inhibition by exendin-4 analogs, methods of Example 1 (Example 2); type: in vivo, Male HSD rats; details: for ED50 of inhibition of gastric emptying: Example 2, FIG. 3; for ED50 of inhibition of gastric emptying / EC50 (inhibition of gastric emptying): 20 min after gavage; for EC50 (inhibition of gastric emptying): Example 2, Table II; for effect on gastric emptying (in words): Example 2, dose-response study
Description: as §1, with “Twenty” for “Conscious rats received by gavage, 1.5 ml of an acaloric gel containing 1.5% methyl cellulose (M-0262, Sigma Chemical Co, St Louis, Mo.) and 0.05% phenol red indicator. Twenty”, “The quantity of phenol red that could be recovered from the upper gastrointestinal tract within 20 minutes of gavage was 89±4%; dye which appeared to bind irrecoverably to the gut luminal surface may have accounted for the balance.” left out

Row | Substance | ED50 of inhibition of gastric emptying (gastric emptying [2]) | % remaining (percent of gastric contents remaining 20 minutes after gavage) (gastric emptying [2]; dose 0.100 μg) | % remaining (percent of gastric contents remaining 20 minutes after gavage) (gastric emptying [2]; dose 0.300 μg) | % remaining (percent of gastric contents remaining 20 minutes after gavage) (gastric emptying [2]; dose 1.000 μg) | % remaining (percent of gastric contents remaining 20 minutes after gavage) (gastric emptying [2]; dose 3.000 μg) | % remaining (percent of gastric contents remaining 20 minutes after gavage) (gastric emptying [2]; dose 10.000 μg) | % remaining (percent of gastric contents remaining 20 minutes after gavage) (gastric emptying [2]; dose 100.000 μg) | ED50 of inhibition of gastric emptying (gastric emptying [4]) [µg] | EC50 (inhibition of gastric emptying) (gastric emptying [4]) [µg] | effect on gastric emptying (in words) (gastric emptying [4]) | % remaining (percent of gastric contents remaining 20 minutes after gavage) (gastric emptying [2]; dose 0.010 μg) | further results
1 | GLP-1[7-36]NH2 [GLP-1 (7-36)NH2] | approximately 9 μg | 42.00 (7) % | 29.60 (7) % | 37.20 (9) % | 56.60 (10) % | 87.90 (11) % | 103.60 (7) % | – | – | – | – | inhibition of pentagastrin-induced gastric acid secretion [1]: inhibitory effect; inhibition of food intake (food intake): not observed; effect on retention of gastric contents 20 minutes after gavage (gastric emptying [3]; 10 μg GLP-1[7-36]NH2 (sc) alone, FIGS. 6 and 7): potently inhibited gastric emptying
2 | ^14Leu, ^25Phe exendin-4 | – | – | – | – | – | – | – | 0.29 | 0.29 | potent inhibitors of gastric emptying; also recorded: dose dependently inhibiting gastric emptying | – | –
3 | exendin-3 | ~0.1 µg | 70.770 (3) % | 86.420 (3) % | 95.330 (3) % | – | 101.760 (3) % | 103.640 (3) % | – | – | – | 58.240 (3) % | effect on gastric emptying (in words) (gastric emptying [2]; listed as exendin 3): dose-dependently inhibited gastric emptying; effect on gastric emptying (in words) (gastric emptying [2]; listed as exendin-3): potent inhibitors of gastric emptying
4 | exendin-4 acid | – | – | – | – | – | – | – | 0.12 | 0.12 | potent inhibitors of gastric emptying; also recorded: dose dependently inhibiting gastric emptying | – | –
5 | exendin[9-39] | – | – | – | – | – | – | – | – | – | – | – | effect on gastric emptying (gastric emptying [3]; 0.3 mg exendin[9-39] (sc) alone): no effect; antagonism of the effect of exendin-4 on gastric emptying inhibition (gastric emptying [3]; 0.3 mg exendin[9-39] (sc) plus 1.0 μg exendin-4 (sc), FIG. 4): did not antagonize; antagonism of the effect of exendin-4 on gastric emptying inhibition (gastric emptying [3]; 0.5 mg exendin[9-39] (iv) plus 0.3 μg exendin-4 (sc), FIG. 5): did not antagonize; antagonism of the effect of GLP-1[7-36]NH2 on gastric emptying inhibition (gastric emptying [3]; 0.5 mg exendin[9-39] (iv) plus 10 μg GLP-1[7-36]NH2 (sc), FIG. 7): did not antagonize; antagonism of the effect of GLP-1[7-36]NH2 on gastric emptying inhibition (gastric emptying [3]; 3 mg exendin[9-39] (sc) plus 10 μg GLP-1[7-36]NH2 (sc), FIG. 6): did not antagonize; reversal / block of the effect of exendin-4 on gastric emptying (gastric emptying [3]; exendin[9-39] administered sc or iv, FIGS. 4 and 5): not reversed; also recorded: did not block; block of the effect of GLP-1[7-36]NH2 on gastric emptying (gastric emptying [3]; exendin[9-39] sc or iv, FIGS. 6 and 7): did not block
6 | rat amylin (KCNTATCATQRLANFLVRSSNNLGPVLPPTNVGSNTY; ends and bridges not checked; cysteine pairing not given here; UniProt P12969 38-74, looked up) [second positive control for gastric emptying] | – | 52.70 (6) % | 58.20 (4) % | 96.80 (9) % | 108.000 (4) % | 101.10 (6) % | 101.20 (2) % | – | – | – | 37.60 (2) % | –
